A short description of series [1]: Excitation-emission spectra of the 3-NBD-BA. The format is physicochemical. The conditions noted are these: NaCl-transport buffer, 1 pM compound concentration. The method, then: After the synthesis of this set of unconjugated as well as T- and G-conjugated 3β- and 3α-NBD-BA derivatives, namely 3β-NBD-CA (6a), 3β-NBD-CDCA (6b), 3β-NBD-DCA (6c), 3α-NBD-CA (6d), 3β-NBD-TCA (14a), 3β-NBD-TCDCA (14b), 3α-NBD-TCA (14d), 3β-NBD-GCA (16a), and 3α-NBD-GCA (16d) comprehensive transport studies were conducted with all fluorescent BA listed in Figure . Prior to the transport studies, the excitation and emission spectra of all fluorescent BA derivatives were determined to obtain the optimal emission and excitation wavelengths for subsequent fluorescent measurements at the fluorescence microscope and the fluorescent reader (Figure ). The excitation maxima (ExPeak) were at 468–470 nm and the emission maxima (EmPeak) at 538–540 nm for all fluorescent NBD-BA.
2 Excitation–emission-spectra of the 3-NBD-BA measured in NaCl-transport buffer at 1 pM compound concentration. The excitation (dotted line, ExPeak) and emission (solid line, EmPeak) peak wavelengths (in nm) are indicated for each compound. RFU, relative fluorescence units. […]

For another series, the target named is T1, human ASBT (Homo sapiens, UniProt Q12908).
T1 sequence (Q12908 1-348): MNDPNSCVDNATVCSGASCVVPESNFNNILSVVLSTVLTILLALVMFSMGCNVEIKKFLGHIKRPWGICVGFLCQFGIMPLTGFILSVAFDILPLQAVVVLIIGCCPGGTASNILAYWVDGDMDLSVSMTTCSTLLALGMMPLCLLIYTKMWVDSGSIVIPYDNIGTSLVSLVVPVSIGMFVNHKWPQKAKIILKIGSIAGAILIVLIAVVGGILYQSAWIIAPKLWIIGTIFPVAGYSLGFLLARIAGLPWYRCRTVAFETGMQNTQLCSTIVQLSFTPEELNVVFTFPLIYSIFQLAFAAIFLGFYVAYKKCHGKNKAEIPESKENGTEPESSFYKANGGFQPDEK
The experiment in a line: Quantitative uptake of 3-NBD-BA in carrier-expressing HEK293 cells (fluorescence reader). The conditions noted are these: ASBT-HEK293, 25 μM, 37 °C, +Na+ vs -Na+. Also noted: stably transfected with the full open reading frames of human NTCP, ASBT, SOAT, OATP1B1, and OATP1B3; expressed in transfected cells. The format is cell-based. The method, then:
For quantification of the transport activity of the synthesized NBD-BA, all cell lines were seeded on 96 well plates and transport experiments were performed under the same control conditions (-Na^+ control for the SLC10 carriers and nontransfected HEK293 cells for the OATP carriers) as before (Figure ). For each NBD-BA, a substrate concentration of 25 μM was used, and the uptake phase was terminated after 10 min of incubation at 37 °C. […] The transport ratios ranged from 3-fold to 39-fold. In direct comparison, 3α-NBD-TCA (14d) and 3α-NBD-GCA (16d) were transported better than their 3β-analogs 3β-NBD-TCA (14a) and 3β-NBD-GCA (16a), respectively, clearly pointing to a preference for the α-position over the β-position of the 3-NBD-label. In direct comparison between the taurine- or glycine-conjugation of the respective NBD-BA, there was a clear preference for 3α-NBD-GCA (16d) over 3α-NBD-TCA (14d), at least for NTCP and mAsbt, pointing to a favorable substrate recognition for glycine-conjugated NBD-BA.
5 Quantitative uptake experiments with the 3-NBD-BA in HEK293 cells stably expressing the human carriers NTCP, ASBT, SOAT, OATP1B1, and OATP1B3, or the mouse carriers mNtcp and mAsbt. For the SLC10 carriers, all transport experiments were performed in the presence (filled bars) and the absence (hatched bars) of sodium. For the OATP carriers, uptake into carrier-expressing cells (filled bars) was compared to uptake into non-carrier-expressing HEK293 cells (hatched bars). All cell lines were incubated at 37 °C for 10 min with the indicated 3-NBD-BA at 25 μM. Then, cells were washed with PBS and subjected to fluorescence detection. The following fluorescent BA were analyzed: 3α-NBD-TCA (14d), 3β-NBD-TCA (14a), 3α-NBD-GCA (16d), 3β-NBD-GCA (16a), 3β-NBD-TCDCA (14b), 3β-NBD-CDCA (6b), 3β-NBD-DCA (6c), 3α-NBD-CA (6d), and 3β-NBD-CA (6a). Data represent means ± SD of triplicate determinations of representative experiments. […] RFU, relative fluorescence units. TEXT PRINTED IN THE PICTURE: 3α-NBD-TCA (14d): NTCP: 9 X; mNtcp: 30 X; ASBT: 2 X; mAsbt: 14 X | 3ß-NBD-TCA (14a): NTCP: 12 X; mNtcp: 20 X; mAsbt: 18 X | 3α-NBD-GCA (16d): NTCP: 27 X; mNtcp: 26 X; ASBT: 3 X; mAsbt: 39 X | 3ß-NBD-GCA (16a): NTCP: 15 X; mNtcp: 14 X; mAsbt: 5 X | 3ß-NBD-TCDCA (14b): NTCP: 5 X; mNtcp: 3 X; mAsbt: 4 X | 3ß-NBD-CDCA (6b): mNtcp: < 2 X; ASBT: < 2 X; mAsbt: < 2 X; OATP1B1: < 2 X; OATP1B3: < 2 X | 3ß-NBD-DCA (6c): mNtcp: < 2 X; ASBT: < 2 X; mAsbt: < 2 X | 3α-NBD-CA (6d): mNtcp: 2 X; mAsbt: 4 X | 3ß-NBD-CA (6a): NTCP: 2 X; mNtcp: 2 X; mAsbt: 2 X DOUBTS OF THE COPYIST ABOUT THIS PICTURE: The picture prints no panel letters, so the chart titles (NTCP, mNtcp, ASBT, mAsbt, OATP1B1, OATP1B3) are written in front of the values as the target. / Substance labels: the sign after '3' is printed like 'ß' and may be meant as 'β'. / The 'ns' marks and significance asterisks were left out as statistics. The SOAT chart prints only 'ns'.

As for “7α-Hydroxy-3β-[(7-nitro-2,1,3-benzoxadiazol-4-yl)amino]-5β-cholan-24-oate [6b]”, in series [1], the “Emission peak wavelength (EmPeak)” value was determined as 538 nm and the “Excitation peak wavelength (ExPeak)” value worked out at 468 nm. Further, the “Specific transport ratio ASBT (25µM/10 min uptake)” value (“Specific transport ratio ASBT” below) on human ASBT is less than 2x x-fold.

On to “12α-Hydroxy-3β-[(7-nitro-2,1,3-benzoxadiazol-4-yl)amino]-5β-cholan-24-oate [6c]”, for which, in series [1], the “Emission peak wavelength (EmPeak)” value stood at 538 nm and the “Excitation peak wavelength (ExPeak)” value came out at 468 nm. In addition, on human ASBT, the “Specific transport ratio ASBT” value is less than 2x x-fold.

`C[C@H](CCC(=O)O)[C@H]1CC[C@H]2[C@@H]3[C@H](O)C[C@@H]4C[C@@H](Nc5ccc([N+](=O)[O-])c6nonc56)CC[C@]4(C)[C@H]3C[C@H](O)[C@]12C` [6a, 7α,12α-Dihydroxy-3β-[(7-nitro-2,1,3-benzoxadiazol-4-yl)amino]-5β-cholan-24-oate]: in series [1], the “Emission peak wavelength (EmPeak)” value is recorded as 538 nm and the “Excitation peak wavelength (ExPeak)” value is listed as 468 nm. In addition, the “Specific transport ratio ASBT” value at human ASBT is on record as “ns”.

As for `C[C@H](CCC(=O)O)[C@H]1CC[C@H]2[C@@H]3[C@H](O)C[C@@H]4C[C@H](Nc5ccc([N+](=O)[O-])c6nonc56)CC[C@]4(C)[C@H]3C[C@H](O)[C@]12C` [6d, 7α,12α-Dihydroxy-3α-[(7-nitro-2,1,3-benzoxadiazol-4-yl)amino]-5β-cholan-24-oate], in series [1], the “Emission peak wavelength (EmPeak)” value stood at 538 nm and the “Excitation peak wavelength (ExPeak)” value turned out to be 468 nm. For the same molecule, the “Specific transport ratio ASBT” value on human ASBT is recorded as “ns”.

Consider `C[C@H](CCC(=O)NCCS(=O)(=O)[O-])[C@H]1CC[C@H]2[C@@H]3[C@H](O)C[C@@H]4C[C@@H](Nc5ccc([N+](=O)[O-])c6nonc56)CC[C@]4(C)[C@H]3C[C@H](O)[C@]12C.[Na+]` [14a], for which, in series [1], the “Emission peak wavelength (EmPeak)” value turned out to be 538 nm and the “Excitation peak wavelength (ExPeak)” value was 468 nm. Also, the “Specific transport ratio ASBT” value at human ASBT is “not transported and ns”.

Turning to `C[C@H](CCC(=O)NCCS(=O)(=O)[O-])[C@H]1CC[C@H]2[C@@H]3[C@H](O)C[C@@H]4C[C@H](Nc5ccc([N+](=O)[O-])c6nonc56)CC[C@]4(C)[C@H]3C[C@H](O)[C@]12C.[Na+]` [14d], in series [1], the “Emission peak wavelength (EmPeak)” value is given as 538 nm and the “Excitation peak wavelength (ExPeak)” value worked out at 468 nm.

As for `C[C@H](CCC(=O)NCC(=O)O)[C@H]1CC[C@H]2[C@@H]3[C@H](O)C[C@@H]4C[C@@H](Nc5ccc([N+](=O)[O-])c6nonc56)CC[C@]4(C)[C@H]3C[C@H](O)[C@]12C` [16a], in series [1], the “Emission peak wavelength (EmPeak)” value is reported as 538 nm and the “Excitation peak wavelength (ExPeak)” value is 468 nm. On human ASBT, the “Specific transport ratio ASBT” value was “not transported and ns”.

For the molecule `C[C@H](CCC(=O)NCC(=O)O)[C@H]1CC[C@H]2[C@@H]3[C@H](O)C[C@@H]4C[C@H](Nc5ccc([N+](=O)[O-])c6nonc56)CC[C@]4(C)[C@H]3C[C@H](O)[C@]12C` [16d], in series [1], the “Emission peak wavelength (EmPeak)” value turned out to be 538 nm and the “Excitation peak wavelength (ExPeak)” value amounted to 468 nm.

The values above are taken from article PMC12169615, “Fluorescent 4‑Nitrobenzo-2-oxa-1,3-diazole-Coupled Bile Acids as Probe Substrates of Hepatic and Intestinal Bile Acid Transporters of the Solute Carrier Families SLC10 and SLCO” (Journal of Medicinal Chemistry, 2025).
